Results: US11000033B2, “Ketone or oxime compound, and herbicide” (NISSAN CHEMICAL CORPORATION, priority 2014, dated 2021)

Columns and labels:
Type in all cases: in vivo
[1] = test system: Abutilon theophrasti; assay: Test Example 5: herbicidal effect by foliage application, plastic box (symbol M); settings: 320 g/ha, 3 weeks after application
Summary of the method: (§1)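 Seeds were sown in sterilized diluvial soil, covered with about 1.5 cm of soil and grown 14 days in a greenhouse at 25° C. to 30° C. An emulsifiable formulation diluted in water to a set rate was sprayed over foliage, and injury was scored 3 weeks later.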

[2] = test system: Setaria viridis; assay: Test Example 5: herbicidal effect by foliage application, plastic box (symbol G); settings: 320 g/ha, 3 weeks after application
Summary of the method: as §1

[3] = test system: Scirpus juncoides; assay: Test Example 1: herbicidal activity, application before weed generation in submerged conditions (symbol B); settings: application herbicide amount 320 g/ha
Summary of the method: (§2)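 Flooded alluvial soil (4 cm water) was mixed-sown with the three weed species, and 2.5-leaf rice seedlings were transplanted. On sowing day, a water-diluted emulsion at a predetermined rate was applied to the water surface. After 3 weeks in a 25–30 °C greenhouse, effect was scored 0–5.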

[4] = test system: Echinochloa crus-galli var. crus-galli; assay: Test Example 5: herbicidal effect by foliage application, plastic box (symbol H); settings: 320 g/ha, 3 weeks after application
Summary of the method: as §1

[5] = test system: Echinochloa oryzacola Vasing.; assay: Test Example 1: herbicidal activity, application before weed generation in submerged conditions (symbol A); settings: application herbicide amount 320 g/ha
Summary of the method: as §2

[6] = test system: wheat; assay: Test Example 5: effect on crop by foliage application, plastic box (symbol e); settings: 320 g/ha, 3 weeks after application
Summary of the method: (§3)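 Box culture: sterile diluvial soil, seeds spot-sown, ~1.5 cm cover, raised under glass at 25–30° C.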

[7] = test system: rice plant; assay: Test Example 5: effect on crop by foliage application, plastic box (symbol b); settings: 320 g/ha, 3 weeks after application
Summary of the method: as §3

[8] = test system: Galium spurium; assay: Test Example 5: herbicidal effect by foliage application, plastic box (symbol Q); settings: 320 g/ha, 3 weeks after application
Summary of the method: as §1

[9] = test system: transplanted rice plant; assay: Test Example 1: effect on crop, application before weed generation in submerged conditions (symbol a); settings: application herbicide amount 320 g/ha
Summary of the method: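 Alluvial soil pots flooded to 4 cm water, sown with Echinochloa oryzacola, Scirpus juncoides and Monochoria vaginalis, then transplanted with 2.5 leaf stage rice seedlings; pre-emergence application. Greenhouse 25° C. to 30° C.; scored 0–5 by herbicidal ratio 3 weeks after application.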

[10] = test system: Echinochloa oryzacola Vasing.; assay: Test Example 2: herbicidal activity, application during weed generation in submerged conditions (symbol A); settings: Table 23; application herbicide amount 320 g/ha; grade 0-5 by criteria of Test Example 1
Description: (§4) Herbicidal Activity Test by Application During Weed Generation in Submerged Conditions
(§5) After alluvial soil was placed into 1/10000 are of Wagner pot, water was poured and mixed to form a submerged condition having a water depth of 4 cm. Seeds of Echinochloa oryzacola Vasing., Scirpus juncoides, and Monochoria vaginalis were sowed in a mixed manner in the above pot and the pot was placed in the greenhouse of 25° C. to 30° C. to grow the plants. When Echinochloa oryzacola Vasing., Scirpus juncoides, and Monochoria vaginalis were grown to one leaf stage to two leaf stage, the emulsion agent of the compound of the present invention prepared in accordance with Formulation Example 2 was diluted with water so as to be a predetermined herbicide amount and the diluted emulsion agent was applied to the surface of the water. 3 weeks later from the herbicide application, the effect to each plant was investigated in accordance with the criteria of Test Example 1.

[11] = test system: Chenopodium album; assay: Test Example 5: herbicidal effect by foliage application, plastic box (symbol O); settings: 320 g/ha, 3 weeks after application
Summary of the method: as §1

[12] = test system: beet; assay: Test Example 5: effect on crop by foliage application, plastic box (symbol f); settings: 320 g/ha, 3 weeks after application
Summary of the method: as §3

[13] = test system: Monochoria vaginalis; assay: Test Example 1: herbicidal activity, application before weed generation in submerged conditions (symbol C); settings: application herbicide amount 320 g/ha
Summary of the method: as §2

[14] = test system: soybean; assay: Test Example 5: effect on crop by foliage application, plastic box (symbol d); settings: 320 g/ha, 3 weeks after application
Summary of the method: as §3

[15] = test system: Amaranthus retroflexus; assay: Test Example 5: herbicidal effect by foliage application, plastic box (symbol N); settings: 320 g/ha, 3 weeks after application
Summary of the method: as §1

[16] = test system: Avena fatua; assay: Test Example 5: herbicidal effect by foliage application, plastic box (symbol I); settings: 320 g/ha, 3 weeks after application
Summary of the method: as §1

[17] = test system: Lolium multiflorum Lam.; assay: Test Example 5: herbicidal effect by foliage application, plastic box (symbol K); settings: 320 g/ha, 3 weeks after application
Summary of the method: as §1

[18] = test system: Scirpus juncoides; assay: Test Example 2: herbicidal activity, application during weed generation in submerged conditions (symbol B); settings: Table 23; application herbicide amount 320 g/ha; grade 0-5 by criteria of Test Example 1
Description: as §4, §5

[19] = test system: Stellaria media; assay: Test Example 5: herbicidal effect by foliage application, plastic box (symbol P); settings: 320 g/ha, 3 weeks after application
Summary of the method: as §1

[20] = test system: corn; assay: Test Example 5: effect on crop by foliage application, plastic box (symbol c); settings: 320 g/ha, 3 weeks after application
Summary of the method: as §3

[21] = test system: rapeseed; assay: Test Example 5: effect on crop by foliage application, plastic box (symbol g); settings: 320 g/ha, 3 weeks after application
Summary of the method: as §3

[22] = test system: Apera spica-venti; assay: Test Example 5: herbicidal effect by foliage application, plastic box (symbol L); settings: 320 g/ha, 3 weeks after application
Summary of the method: as §1

[23] = test system: Alopecurus myosuroides; assay: Test Example 5: herbicidal effect by foliage application, plastic box (symbol J); settings: 320 g/ha, 3 weeks after application
Summary of the method: as §1

[24] = test system: Monochoria vaginalis; assay: Test Example 2: herbicidal activity, application during weed generation in submerged conditions (symbol C); settings: Table 23; application herbicide amount 320 g/ha; grade 0-5 by criteria of Test Example 1
Description: as §4, §5

[25] = test system: Veronica persica; assay: Test Example 5: herbicidal effect by foliage application, plastic box (symbol R); settings: 320 g/ha, 3 weeks after application
Summary of the method: as §1

[26] = test system: Digitaria ciliaris; assay: Test Example 5: herbicidal effect by foliage application, plastic box (symbol F); settings: 320 g/ha, 3 weeks after application
Summary of the method: as §1

[27] = test system: Leptochloa chinensis; assay: Test Example 3: herbicidal effect by foliage application, Wagner pot (symbol D); settings: application herbicide amount 320 g/ha
Summary of the method: (§6)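 Post-emergence, paddy-type test: seedlings 14 d old in shallow-flooded (0.1–0.5 cm) alluvial soil, 25–30 °C greenhouse. Emulsion diluted to target rate, sprayed on leaves. Read-out: visual effect on each species at 3 weeks, per set criteria.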

[28] = test system: Echinochloa crus-galli var. crus-galli; assay: Test Example 3: herbicidal effect by foliage application, Wagner pot (symbol H); settings: application herbicide amount 320 g/ha
Summary of the method: as §6

[29] = test system: directly sowed rice plant; assay: Test Example 3: effect on crop by foliage application, Wagner pot (symbol b); settings: application herbicide amount 320 g/ha
Summary of the method: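 Alluvial soil in a 1/10000-are Wagner pot was flooded to a water depth of 0.1–0.5 cm. Echinochloa crus-galli var. crus-galli, Leptochloa chinensis, Cyperus difformis and rice were sown into it and grown in a greenhouse at 25–30 °C.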

## CC(CC1CC(O)=C(c2c(C)cc(C)cc2C)C1=O)=NOCc1c(F)cccc1Cl (stereo not shown) [1-115]
[1]
  M: Abutilon theophrasti, herbicidal effect (criteria 0-5): 0 (Herbicidal ratio of 5% or lower (almost no effect))
[2]
  G: Setaria viridis, herbicidal effect (criteria 0-5): 1 (Herbicidal ratio of 5% or higher and lower than 20%)
[3]
  Herbicidal effect grade, B: Scirpus juncoides: 3 (Herbicidal ratio of 40% or higher and lower than 70%)
[4]
  H: Echinochloa crus-galli var. crus-galli, herbicidal effect (criteria 0-5): 1 (Herbicidal ratio of 5% or higher and lower than 20%)
[5]
  Herbicidal effect grade, A: Echinochloa oryzacola Vasing.: 5 (Herbicidal ratio of 90% or more (almost completely withered))
[6]
  e: wheat, effect on crop (criteria 0-5): 0 (Herbicidal ratio of 5% or lower (almost no effect))
[7]
  b: directly sowed rice plant, effect on crop (criteria 0-5): 1 (Herbicidal ratio of 5% or higher and lower than 20%)
[8]
  Q: Galium spurium, herbicidal effect (criteria 0-5): 0 (Herbicidal ratio of 5% or lower (almost no effect))
[9]
  Effect grade on crop, a: transplanted rice plant: 1 (Herbicidal ratio of 5% or higher and lower than 20%)
[10]
  Herbicidal effect grade, A: Echinochloa oryzacola Vasing.: 3 (Herbicidal ratio of 40% or higher and lower than 70%)
[11]
  O: Chenopodium album, herbicidal effect (criteria 0-5): 0 (Herbicidal ratio of 5% or lower (almost no effect))
[12]
  f: beet, effect on crop (criteria 0-5): 0 (Herbicidal ratio of 5% or lower (almost no effect))
[13]
  Herbicidal effect grade, C: Monochoria vaginalis: 4 (Herbicidal ratio of 70% or higher and lower than 90%)
[14]
  d: soybean, effect on crop (criteria 0-5): 0 (Herbicidal ratio of 5% or lower (almost no effect))
[15]
  N: Amaranthus retroflexus, herbicidal effect (criteria 0-5): 0 (Herbicidal ratio of 5% or lower (almost no effect))
[16]
  I: Avena fatua, herbicidal effect (criteria 0-5): 2 (Herbicidal ratio of 20% or higher and lower than 40%)
[17]
  K: Lolium multiflorum Lam., herbicidal effect (criteria 0-5): 3 (Herbicidal ratio of 40% or higher and lower than 70%)
[18]
  Herbicidal effect grade, B: Scirpus juncoides: 2 (Herbicidal ratio of 20% or higher and lower than 40%)
[19]
  P: Stellaria media, herbicidal effect (criteria 0-5): 1 (Herbicidal ratio of 5% or higher and lower than 20%)
[20]
  c: corn, effect on crop (criteria 0-5): 0 (Herbicidal ratio of 5% or lower (almost no effect))
[21]
  g: rapeseed, effect on crop (criteria 0-5): 5 (Herbicidal ratio of 90% or more (almost completely withered))
[22]
  L: Apera spica-venti, herbicidal effect (criteria 0-5): 4 (Herbicidal ratio of 70% or higher and lower than 90%)
[23]
  J: Alopecurus myosuroides, herbicidal effect (criteria 0-5): 3 (Herbicidal ratio of 40% or higher and lower than 70%)
[24]
  Herbicidal effect grade, C: Monochoria vaginalis: 0 (Herbicidal ratio of 5% or lower (almost no effect))
[25]
  R: Veronica persica, herbicidal effect (criteria 0-5): 1 (Herbicidal ratio of 5% or higher and lower than 20%)
[26]
  F: Digitaria ciliaris, herbicidal effect (criteria 0-5): 2 (Herbicidal ratio of 20% or higher and lower than 40%)

## CON=C(C)CC1CC(OCC(Cl)=CCl)=C(c2c(C)cc(C)cc2C)C1=O (stereo not shown) [1-166]
[1]
  M: Abutilon theophrasti, herbicidal effect grade: 3 (Herbicidal ratio of 40% or higher and lower than 70%)
[2]
  G: Setaria viridis, herbicidal effect grade: 1 (Herbicidal ratio of 5% or higher and lower than 20%)
[3]
  Herbicidal effect grade, B: Scirpus juncoides: 0 (Herbicidal ratio of 5% or lower (almost no effect))
[4]
  H: Echinochloa crus-galli var. crus-galli, herbicidal effect grade: 4 (Herbicidal ratio of 70% or higher and lower than 90%)
[5]
  Herbicidal effect grade, A: Echinochloa oryzacola Vasing.: 5 (Herbicidal ratio of 90% or more (almost completely withered))
[6]
  e: wheat, effect on crop grade: 1 (Herbicidal ratio of 5% or higher and lower than 20%)
[7]
  b: directly sowed rice plant, effect on crop grade: 3 (Herbicidal ratio of 40% or higher and lower than 70%)
[27]
  herbicidal effect on D (Leptochloa chinensis), grade 0-5: 4 (Herbicidal ratio of 70% or higher and lower than 90%)
[8]
  Q: Galium spurium, herbicidal effect grade: 0 (Herbicidal ratio of 5% or lower (almost no effect))
[9]
  Effect grade on crop, a: transplanted rice plant: 0 (Herbicidal ratio of 5% or lower (almost no effect))
[10]
  Herbicidal effect grade, A: Echinochloa oryzacola Vasing.: 3 (Herbicidal ratio of 40% or higher and lower than 70%)
[11]
  O: Chenopodium album, herbicidal effect grade: 0 (Herbicidal ratio of 5% or lower (almost no effect))
[12]
  f: beet, effect on crop grade: 0 (Herbicidal ratio of 5% or lower (almost no effect))
[13]
  Herbicidal effect grade, C: Monochoria vaginalis: 0 (Herbicidal ratio of 5% or lower (almost no effect))
[14]
  d: soybean, effect on crop grade: 1 (Herbicidal ratio of 5% or higher and lower than 20%)
[15]
  N: Amaranthus retroflexus, herbicidal effect grade: 0 (Herbicidal ratio of 5% or lower (almost no effect))
[16]
  I: Avena fatua, herbicidal effect grade: 5 (Herbicidal ratio of 90% or more (almost completely withered))
[17]
  K: Lolium multiflorum Lam., herbicidal effect grade: 5 (Herbicidal ratio of 90% or more (almost completely withered))
[18]
  Herbicidal effect grade, B: Scirpus juncoides: 0 (Herbicidal ratio of 5% or lower (almost no effect))
[19]
  P: Stellaria media, herbicidal effect grade: 0 (Herbicidal ratio of 5% or lower (almost no effect))
[28]
  herbicidal effect on H (Echinochloa crus-galli var. crus-galli), grade 0-5: 4 (Herbicidal ratio of 70% or higher and lower than 90%)
[20]
  c: corn, effect on crop grade: 1 (Herbicidal ratio of 5% or higher and lower than 20%)
[21]
  g: rapeseed, effect on crop grade: 4 (Herbicidal ratio of 70% or higher and lower than 90%)
[29]
  effect on crop b (directly sowed rice plant), grade 0-5: 3 (Herbicidal ratio of 40% or higher and lower than 70%)
[22]
  L: Apera spica-venti, herbicidal effect grade: 5 (Herbicidal ratio of 90% or more (almost completely withered))
[23]
  J: Alopecurus myosuroides, herbicidal effect grade: 4 (Herbicidal ratio of 70% or higher and lower than 90%)
[24]
  Herbicidal effect grade, C: Monochoria vaginalis: 0 (Herbicidal ratio of 5% or lower (almost no effect))
[25]
  R: Veronica persica, herbicidal effect grade: 0 (Herbicidal ratio of 5% or lower (almost no effect))
[26]
  F: Digitaria ciliaris, herbicidal effect grade: 1 (Herbicidal ratio of 5% or higher and lower than 20%)
